ChEMBL document CHEMBL3045430, “Natural products-based insecticidal agents 11. Synthesis and insecticidal activity of novel 4α-arylsulfonyloxybenzyloxy-2β-chloropodophyllotoxin derivatives against Mythimna separata Walker in vivo” (2011)
Activity calls are given as the source filed them. The rule behind the calls is not given here.

Columns and labels:
Mythimna separata [1] = test: In vivo insecticidal activity against pre-third-instar larval stage of Mythimna separata (Oriental armyworm) in corn leaves assessed as corrected mortality rate at 1 mg/ml treated for 3 secs before larval infestation on corn leaves measured after 35 days by leaf-dipping method; assay type: functional; conditions: 840 h
Mythimna separata [2] = test: In vivo insecticidal activity against pre-third-instar larval stage of Mythimna separata (Oriental armyworm) in corn leaves assessed as corrected mortality rate at 1 mg/ml treated for 3 secs before larval infestation on corn leaves measured after 20 days by leaf-dipping method; assay type: functional; conditions: 480 h
Mythimna separata [3] = test: In vivo insecticidal activity against pre-third-instar larval stage of Mythimna separata (Oriental armyworm) in corn leaves assessed as induction of malformed pupae at 1 mg/ml treated for 3 secs before larval infestation on corn leaves measured after […] by leaf-dipping method; assay type: functional, organism-based
Mythimna separata [4] = test: In vivo insecticidal activity against pre-third-instar larval stage of Mythimna separata (Oriental armyworm) in corn leaves assessed as corrected mortality rate at 1 mg/ml treated for 3 secs before larval infestation on corn leaves measured after 10 days by leaf-dipping method; assay type: functional; conditions: 240 h
Mythimna separata [5] = test: In vivo insecticidal activity against pre-third-instar larval stage of Mythimna separata (Oriental armyworm) in corn leaves assessed as induction of malformed moth with imperfect wings at 1 mg/ml treated for 3 secs before larval infestation on corn leaves measured after […] by leaf-dipping method; assay type: functional, organism-based
Mythimna separata [6] = test: In vivo insecticidal activity against pre-third-instar larval stage of Mythimna separata (Oriental armyworm) in corn leaves assessed as induction of slim and wrinkled larval bodies at 1 mg/ml treated for 3 secs before larval infestation on corn leaves measured after 48 hr by leaf-dipping method; assay type: functional, organism-based

| SMILES | mortality at 1000 µg/mL (Mythimna separata [1]) [%] | mortality at 1000 µg/mL (Mythimna separata [2]) [%] | Activity (Mythimna separata [3]) | mortality at 1000 µg/mL (Mythimna separata [4]) [%] | Activity (Mythimna separata [5]) | Activity (Mythimna separata [6]) |
| --- | --- | --- | --- | --- | --- | --- |
| COc1cc([C@@H]2c3cc4c(cc3[C@H](OCc3ccccc3OS(=O)(=O)c3ccccc3)[C@H]3COC(=O)[C@]23Cl)OCO4)cc(OC)c1OC | 40 | 26.9 | Active | 7.1 | Active |  |
| COc1ccc(S(=O)(=O)Oc2ccccc2CO[C@H]2c3cc4c(cc3[C@@H](c3cc(OC)c(OC)c(OC)c3)[C@@]3(Cl)C(=O)OC[C@H]23)OCO4)cc1 | 48 | 34.6 |  | 17.9 | Active |  |
| COc1cc([C@@H]2c3cc4c(cc3[C@H](OCc3ccc(OS(=O)(=O)c5ccc(C)cc5)cc3)[C@H]3COC(=O)[C@]23Cl)OCO4)cc(OC)c1OC | 40 | 38.5 | Active | 17.9 |  |  |
| COc1ccc(S(=O)(=O)Oc2ccc(CO[C@H]3c4cc5c(cc4[C@@H](c4cc(OC)c(OC)c(OC)c4)[C@@]4(Cl)C(=O)OC[C@H]34)OCO5)cc2)cc1 | 48 | 34.6 |  | 21.4 |  |  |
| CC(=O)O[C@@H]1C[C@H](O)[C@@]23CO[C@@H](O)[C@]1(C)[C@@H]2C[C@@H](O)[C@]1(C)[C@@H]3C(=O)[C@H](OC(C)=O)[C@@]2(C)[C@H](c3ccoc3)C[C@H]3O[C@]321 [TOOSENDANIN] | 48 | 34.6 |  | 17.9 |  |  |
| COc1cc([C@@H]2c3cc4c(cc3[C@H](OCc3ccccc3OS(=O)(=O)c3ccc(Cl)c([N+](=O)[O-])c3)[C@H]3COC(=O)[C@]23Cl)OCO4)cc(OC)c1OC | 72 | 57.7 | Active | 25 |  | Active |
| CCc1ccc(S(=O)(=O)Oc2ccc(CO[C@H]3c4cc5c(cc4[C@@H](c4cc(OC)c(OC)c(OC)c4)[C@@]4(Cl)C(=O)OC[C@H]34)OCO5)cc2)cc1 | 56 | 38.5 |  | 14.3 |  | Active |
| COc1cc([C@@H]2c3cc4c(cc3[C@H](OCc3ccc(OS(=O)(=O)c5ccccc5)cc3)[C@H]3COC(=O)[C@]23Cl)OCO4)cc(OC)c1OC | 36 | 30.8 | Active | 14.3 |  |  |
| CCc1ccc(S(=O)(=O)Oc2ccccc2CO[C@H]2c3cc4c(cc3[C@@H](c3cc(OC)c(OC)c(OC)c3)[C@@]3(Cl)C(=O)OC[C@H]23)OCO4)cc1 | 68 | 57.7 |  | 35.7 |  | Active |
| COc1cc([C@@H]2c3cc4c(cc3[C@H](OCc3ccccc3OS(=O)(=O)c3cccc([N+](=O)[O-])c3)[C@H]3COC(=O)[C@]23Cl)OCO4)cc(OC)c1OC | 36 | 34.6 | Active | 10.7 | Active |  |
| COc1cc([C@@H]2c3cc4c(cc3[C@H](O)[C@H]3COC(=O)[C@]23Cl)OCO4)cc(OC)c1OC [2BETA-CHLOROPODOPHYLLOTOXIN] | 36 | 15.4 |  | 14.3 |  |  |
| COc1cc([C@@H]2c3cc4c(cc3[C@H](OCc3ccccc3)[C@H]3COC(=O)[C@]23Cl)OCO4)cc(OC)c1OC [4ALPHA-BENZYLOXY-2-CHLOROPODOPHYLLOTOXIN] | 52 | 19.2 |  | 10.7 |  |  |
| COc1cc([C@@H]2c3cc4c(cc3[C@H](OCc3ccc(OS(=O)(=O)c5ccc(Cl)cc5)cc3)[C@H]3COC(=O)[C@]23Cl)OCO4)cc(OC)c1OC | 40 | 38.5 |  | 28.6 |  |  |
| COc1cc([C@@H]2c3cc4c(cc3[C@H](OCc3ccc(OS(=O)(=O)c5ccc(Cl)c([N+](=O)[O-])c5)cc3)[C@H]3COC(=O)[C@]23Cl)OCO4)cc(OC)c1OC | 48 | 26.9 |  | 17.9 |  |  |
| COc1cc([C@@H]2c3cc4c(cc3[C@H](OCc3ccccc3OS(=O)(=O)c3ccc(C)cc3)[C@H]3COC(=O)[C@]23Cl)OCO4)cc(OC)c1OC | 52 | 34.6 |  | 21.4 |  |  |
| COc1cc([C@@H]2c3cc4c(cc3[C@H](OCc3ccccc3OS(=O)(=O)c3ccc(Cl)cc3)[C@H]3COC(=O)[C@]23Cl)OCO4)cc(OC)c1OC | 48 | 34.6 |  | 7.1 | Active |  |
| COc1cc([C@@H]2c3cc4c(cc3[C@H](O)[C@H]3COC(=O)[C@H]23)OCO4)cc(OC)c1OC [PODOFILOX] | 40 | 23.1 |  | 17.9 |  |  |
| COc1cc([C@@H]2c3cc4c(cc3[C@H](OCc3ccc(OS(=O)(=O)c5cccc([N+](=O)[O-])c5)cc3)[C@H]3COC(=O)[C@]23Cl)OCO4)cc(OC)c1OC | 52 | 38.5 | Active | 14.3 |  |  |
